# Laboratory results from ChEMBL document CHEMBL5505983, “Design, synthesis, and molecular modeling studies of novel 2-quinolone-1,2,3-triazole-α-aminophosphonates hybrids as dual antiviral and antibacterial agents” (Eur J Med Chem, 2024).
# Tests used:
# [1] = Selectivity index, ratio of CC50 for African green monkey Vero A cells to IC50 for CHIKV infected in African green monkey Vero A cells; format: toxicity; settings: read-out: Ratio CC50/IC50
# Chikungunya virus = experiment: Antiviral activity against CHIKV infected in African green monkey Vero A cells assessed as inhibition of cytopathic effect by microscopy based analysis; format: functional, organism-based
# Escherichia coli [2] = experiment: Bactericidal activity against Escherichia coli CIP 53154; format: functional
# Yellow fever virus = experiment: Antiviral activity against Yellow fever virus infected in human Huh-7 cells assessed as inhibition of cytopathic effect by microscopy based analysis; format: functional, organism-based
# Pseudomonas aeruginosa [3] = experiment: Ratio of MBC to MIC for Pseudomonas aeruginosa CIP A22; format: functional
# [4] = Cytotoxicity against human HeLa-RH cells; format: toxicity, cell-based
# Escherichia coli [5] = experiment: Ratio of MBC to MIC for Escherichia coli CIP 53154; format: functional
# Enterococcus faecalis [6] = experiment: Ratio of MBC to MIC for Enterococcus faecalis; format: functional
# Pseudomonas aeruginosa [7] = experiment: Bactericidal activity against Pseudomonas aeruginosa CIP A22; format: functional
# Enterovirus A71 = experiment: Antiviral activity against human EV71 infected in human RD cells assessed as inhibition of cytopathic effect by microscopy based analysis; format: functional, organism-based; settings: Enterovirus A
# Zika virus = experiment: Antiviral activity against Zika virus infected in african green monkey Vero E6 cells assessed as inhibition of cytopathic effect by microscopy based analysis; format: functional, organism-based; settings: Vero C1008
# Staphylococcus aureus [8] = experiment: Antibacterial activity against Staphylococcus aureus CIP 54127 assessed as reduction in bacterial growth by micro-broth dilution method; format: functional
# [9] = Cytotoxicity against African green monkey Vero E6 cells; format: toxicity, cell-based, Vero C1008; settings: chlorocebus sabaeus
# Pseudomonas aeruginosa [10] = experiment: Antibacterial activity against Pseudomonas aeruginosa CIP A22 assessed as reduction in bacterial growth by micro-broth dilution method; format: functional
# [11] = Cytotoxicity against human Huh-7 cells; format: toxicity, cell-based
# Human rhinovirus sp. [12] = experiment: Antiviral activity against Human rhinovirus B14 infected in human HeLa-RH cells assessed as inhibition of cytopathic effect by microscopy based analysis; format: functional, organism-based
# Escherichia coli [13] = experiment: Antibacterial activity against Escherichia coli CIP 53154 assessed as reduction in bacterial growth by micro-broth dilution method; format: functional
# Enterococcus faecalis [14] = experiment: Bactericidal activity against Enterococcus faecalis; format: functional
# [15] = Cytotoxicity against African green monkey Vero A cells; format: toxicity, cell-based; settings: chlorocebus sabaeus
# Staphylococcus aureus [16] = experiment: Ratio of MBC to MIC for Staphylococcus aureus CIP 54127; format: functional
# Enterococcus faecalis [17] = experiment: Antibacterial activity against Enterococcus faecalis assessed as reduction in bacterial growth by micro-broth dilution method; format: functional
# Human rhinovirus sp. [18] = experiment: Antiviral activity against Human rhinovirus A2 infected in human HeLa-RH cells assessed as inhibition of cytopathic effect by microscopy based analysis; format: functional, organism-based
# [19] = Cytotoxicity against human RD cells; format: toxicity, cell-based
# Staphylococcus aureus [20] = experiment: Bactericidal activity against Staphylococcus aureus CIP 54127; format: functional
# [21] = Selectivity index, ratio of CC50 for human RD cells to IC50 for human EV71 infected in human RD cells; format: toxicity, cell-based; settings: read-out: Ratio CC50/IC50
# [22] = Selectivity index, ratio of CC50 for human HeLa-RH cells to IC50 for Human rhinovirus B14 infected in human HeLa-RH cells; format: toxicity, cell-based; settings: read-out: Ratio CC50/IC50
# [23] = Selectivity index, ratio of CC50 for human HeLa-RH cells to IC50 for Human rhinovirus A2 infected in human HeLa-RH cells; format: toxicity, cell-based; settings: read-out: Ratio CC50/IC50
# Pseudomonas aeruginosa [24] = experiment: Antibacterial activity against Pseudomonas aeruginosa; format: functional
# Staphylococcus aureus [25] = experiment: Antibacterial activity against Staphylococcus aureus; format: functional
# [26] = Selectivity index, ratio of CC50 for African green monkey Vero E6 cells to IC50 for Zika virus infected in african green monkey Vero E6 cells; format: toxicity; settings: read-out: Ratio CC50/IC50
# [27] = Selectivity index, ratio of CC50 for human Huh-7 cells to IC50 for Yellow fever virus infected in human Huh-7 cells; format: toxicity, cell-based; settings: read-out: Ratio CC50/IC50
# SARS-CoV-2 = experiment: Antiviral activity against SARS-CoV-2 HCoV-19/Egypt/NRC-03/2020 infected in African green monkey Vero E6 cells assessed as inhibition of virus induced cytopathic effect pre-infected with virus for 1 hr followed by compound addition and measured after 72 hrs by crystal violet staining based analysis; format: functional, organism-based; settings: Severe acute respiratory syndrome coronavirus 2, HCoV-19/Egypt/NRC-03/2020, Vero C1008
SMILES,IC50 (Chikungunya virus) [µM],MBC (Escherichia coli [2]) [µM],IC50 (Yellow fever virus) [µM],Ratio (Pseudomonas aeruginosa [3]),CC50 [4] [µM],Ratio (Escherichia coli [5]),Ratio (Enterococcus faecalis [6]),MBC (Pseudomonas aeruginosa [7]) [µM],IC50 (Enterovirus A71) [µM],IC50 (Zika virus) [µM],MIC (Staphylococcus aureus [8]) [µM],CC50 [9] [µM],MIC (Pseudomonas aeruginosa [10]) [µM],CC50 [11] [µM],IC50 (Human rhinovirus sp. [12]) [µM],MIC (Escherichia coli [13]) [µM],MBC (Enterococcus faecalis [14]) [µM],CC50 [15] [µM],IC50 (Human rhinovirus sp. [18]) [µM],CC50 [19] [µM],also measured
Cc1cc(=O)n(Cc2cn(Cc3ccc(O)c(C=O)c3)nn2)c2ccc(Br)cc12,98.5,11000,> 100,1,8.61,2,1,2760,33.3,> 100,11000,52.7,2760,29.6,> 100,5520,340,> 100,> 1.23,44.1,selectivity ratio [1]: > 1.02; Ratio (Staphylococcus aureus [16]): 1; MIC (Enterococcus faecalis [17]): 340 µM; MBC (Staphylococcus aureus [20]): 11000 µM; selectivity ratio [21]: 1.33
CCOC(=O)/C=C/[C@H](C[C@@H]1CCNC1=O)NC(=O)[C@@H](CC(=O)[C@@H](NC(=O)c1cc(C)on1)C(C)C)Cc1ccc(F)cc1 [RUPINTRIVIR],–,–,–,–,–,–,–,–,1.87,–,–,–,–,–,–,–,–,–,–,> 100,selectivity ratio [21]: > 53.5
Cc1cc(CCCOc2c(C)cc(-c3noc(C(F)(F)F)n3)cc2C)on1 [PLECONARIL],–,–,–,–,> 100,–,–,–,–,–,–,–,–,–,0.2,–,–,–,0.44,–,selectivity ratio [22]: > 500; selectivity ratio [23]: > 227
CCOP(=O)(OCC)C(Nc1ccccc1)c1cc(Cn2cc(Cn3c(=O)cc(C)c4cc(Br)ccc43)nn2)ccc1O (stereo unspecified),40,1880,> 100,1.99,> 100,1.98,2,3750,> 100,> 100,240,> 100,3750,52,41.1,950,120,> 100,> 1.23,> 100,selectivity ratio [1]: > 2.5; selectivity ratio [22]: > 2.43; Ratio (Staphylococcus aureus [16]): 1; MIC (Enterococcus faecalis [17]): 60 µM; MBC (Staphylococcus aureus [20]): 240 µM
COC(=O)C(NC(=O)c1ccccc1)n1cc(Cn2c(=O)cc(C(=O)N[C@H](C)C(=O)OC)c3ccccc32)nn1 (stereo partly specified),–,–,–,–,–,–,–,–,–,–,–,–,–,–,–,–,–,–,–,–,MIC (Pseudomonas aeruginosa [24]): 78 µg/mL; MIC (Staphylococcus aureus [25]): 39 µg/mL
CCOP(=O)(OCC)C(Nc1ccccc1Cl)c1cc(Cn2cc(Cn3c(=O)cc(C)c4cc(Br)ccc43)nn2)ccc1O (stereo unspecified),> 100,440,9.91,4.05,9.88,1,1,1780,> 100,71.5,440,> 100,1780,20,> 33.3,440,60,7.58,> 0.41,> 100,selectivity ratio [26]: > 1.4; selectivity ratio [27]: 2.02; Ratio (Staphylococcus aureus [16]): 1; MIC (Enterococcus faecalis [17]): 60 µM; MBC (Staphylococcus aureus [20]): 440 µM
CCOP(=O)(OCC)C(Nc1ccc(C)cc1)c1cc(Cn2cc(Cn3c(=O)cc(C)c4cc(Br)ccc43)nn2)ccc1O (stereo unspecified),56.1,930,> 100,4,29.1,2.02,1,1840,> 100,> 100,460,> 33.3,1840,20,10.7,460,60,> 100,> 0.41,> 100,selectivity ratio [1]: > 1.78; selectivity ratio [22]: 2.73; Ratio (Staphylococcus aureus [16]): 1; MIC (Enterococcus faecalis [17]): 60 µM; MBC (Staphylococcus aureus [20]): 460 µM
C[C@@]1(O)[C@H](O)[C@@H](CO)O[C@H]1n1ccc2c(N)ncnc21 [BETA-2'-C-METHYL-7-DEAZA-ADENOSINE],–,–,16.3,–,–,–,–,–,–,20,–,> 100,–,50,–,–,–,–,–,–,selectivity ratio [26]: > 5; selectivity ratio [27]: 3.07
CCOP(=O)(OCC)C(Nc1ccccc1Br)c1cc(Cn2cc(Cn3c(=O)cc(C)c4ccccc43)nn2)ccc1O (stereo unspecified),9.4,470,9.94,1.99,45.7,1,1,3750,> 100,> 100,120,> 100,3750,30.1,> 100,470,60,23.4,> 1.23,70.2,selectivity ratio [1]: 2.49; selectivity ratio [27]: 3.03; Ratio (Staphylococcus aureus [16]): 1; MIC (Enterococcus faecalis [17]): 60 µM; MBC (Staphylococcus aureus [20]): 120 µM
Fc1ccc2nc(C(F)(F)F)cc(OCc3cn(-c4ccccc4Cl)nn3)c2c1,–,–,–,–,–,–,–,–,–,–,–,–,–,–,–,–,–,–,–,–,IC50 (SARS-CoV-2): 60 µM
CCOP(=O)(OCC)C(Nc1ccc(I)cc1)c1cc(Cn2cc(Cn3c(=O)cc(C)c4cc(F)ccc43)nn2)ccc1O (stereo unspecified),33,1710,> 33.3,1,> 33.3,1.99,1,1710,> 100,> 100,110,> 100,1710,12.1,10.9,860,50,> 100,> 33.3,> 100,selectivity ratio [1]: > 3.03; selectivity ratio [22]: > 3.06; Ratio (Staphylococcus aureus [16]): 2; MIC (Enterococcus faecalis [17]): 50 µM; MBC (Staphylococcus aureus [20]): 220 µM
Cc1cc(=O)n(Cc2cn(Cc3ccc(O)c(C=O)c3)nn2)c2ccc(F)cc12,> 100,6370,> 100,2.01,14.5,1,2,3190,29.9,> 100,3190,55,3190,27.8,> 100,6370,400,> 100,> 1.23,43,Ratio (Staphylococcus aureus [16]): 1; MIC (Enterococcus faecalis [17]): 200 µM; MBC (Staphylococcus aureus [20]): 3190 µM; selectivity ratio [21]: 1.44
